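Results reflect a 48-hour exposure of cells in 96-well plates to compound at five concentrations. GI50: concentration for 50% inhibition of growth. TGI is the concentration that stops growth completely.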
Tests used:
Experiment in all cases: inhibition of tumour cell growth, NCI panel, 48 h
786-0 renal = system: 786-0 renal
A498 renal = system: A498 renal
A549 NSCLC = system: A549 NSCLC
ACHN renal = system: ACHN renal
BT-549 breast = system: BT-549 breast
CAKI-1 renal = system: CAKI-1 renal
CCRF-CEM leukemia = system: CCRF-CEM leukemia
COLO 205 colon = system: COLO 205 colon
DU-145 prostate = system: DU-145 prostate
EKVX NSCLC = system: EKVX NSCLC
HCC-2998 colon = system: HCC-2998 colon
HCT-116 colon = system: HCT-116 colon
HCT-15 colon = system: HCT-15 colon
HL-60(TB) leukemia = system: HL-60(TB) leukemia
HOP-62 NSCLC = system: HOP-62 NSCLC
HS 578T breast = system: HS 578T breast
HT29 colon = system: HT29 colon
IGROV1 ovarian = system: IGROV1 ovarian
K-562 leukemia = system: K-562 leukemia
KM12 colon = system: KM12 colon
LOX IMVI melanoma = system: LOX IMVI melanoma
M14 melanoma = system: M14 melanoma
MALME-3M melanoma = system: MALME-3M melanoma
MCF7 breast = system: MCF7 breast
MDA-MB-231 breast = system: MDA-MB-231 breast
MDA-MB-435 = system: MDA-MB-435
MOLT-4 leukemia = system: MOLT-4 leukemia
NCI-H226 lung = system: NCI-H226 lung
NCI-H23 lung = system: NCI-H23 lung
NCI-H460 lung = system: NCI-H460 lung
NCI-H522 lung = system: NCI-H522 lung
NCI/ADR-RES ovarian = system: NCI/ADR-RES ovarian
OVCAR-3 ovarian = system: OVCAR-3 ovarian
OVCAR-4 ovarian = system: OVCAR-4 ovarian
OVCAR-5 ovarian = system: OVCAR-5 ovarian
OVCAR-8 ovarian = system: OVCAR-8 ovarian
RPMI-8226 leukemia = system: RPMI-8226 leukemia
RXF 393 renal = system: RXF 393 renal
SF-268 CNS = system: SF-268 CNS
SF-295 CNS = system: SF-295 CNS
SF-539 CNS = system: SF-539 CNS
SK-MEL-2 melanoma = system: SK-MEL-2 melanoma
SK-MEL-28 melanoma = system: SK-MEL-28 melanoma
SK-MEL-5 melanoma = system: SK-MEL-5 melanoma
SK-OV-3 ovarian = system: SK-OV-3 ovarian
SN12C renal = system: SN12C renal
SNB-19 CNS = system: SNB-19 CNS
SNB-75 CNS = system: SNB-75 CNS
SR leukemia = system: SR leukemia
SW-620 colon = system: SW-620 colon
T-47D breast = system: T-47D breast
TK-10 renal = system: TK-10 renal
U251 CNS = system: U251 CNS
UACC-257 melanoma = system: UACC-257 melanoma
UACC-62 melanoma = system: UACC-62 melanoma
UO-31 renal = system: UO-31 renal

`CCNC(=O)Oc1ccc(/C(=C(/C)Cc2ccc(OC)cc2)c2ccc(OCCN(CC)CC)cc2)cc1` gave a GI50 (786-0 renal) of 1.39 µM, a TGI (786-0 renal) of 2.88 µM and a GI50 (A498 renal) of 2.58 µM. It also gave a TGI (A498 renal) of 11.1 µM, a GI50 (A549 NSCLC) of 1.87 µM and a TGI (A549 NSCLC) of 3.62 µM. The GI50 (ACHN renal) was 1.69 µM, the TGI (ACHN renal) was 3.18 µM and the GI50 (BT-549 breast) was 1.73 µM. For the same compound, the TGI (BT-549 breast) was 4.16 µM, the GI50 (CAKI-1 renal) was 1.64 µM and the TGI (CAKI-1 renal) was 3.84 µM. It also gave a GI50 (CCRF-CEM leukemia) of 2.66 µM, a TGI (CCRF-CEM leukemia) of 7.96 µM and a GI50 (COLO 205 colon) of 1.94 µM. It also gave a TGI (COLO 205 colon) of 3.82 µM, a GI50 (DU-145 prostate) of 2.36 µM and a TGI (DU-145 prostate) of 5.83 µM. The GI50 (EKVX NSCLC) was 1.7 µM, the TGI (EKVX NSCLC) was 5.03 µM and the GI50 (HCC-2998 colon) was 1.7 µM. It also gave a TGI (HCC-2998 colon) of 3.29 µM, a GI50 (HCT-116 colon) of 1.57 µM and a TGI (HCT-116 colon) of 3.11 µM. It also gave a GI50 (HCT-15 colon) of 1.51 µM, a TGI (HCT-15 colon) of 3.06 µM and a GI50 (HL-60(TB) leukemia) of 1.94 µM. The TGI (HL-60(TB) leukemia) was 4.56 µM, the GI50 (HOP-62 NSCLC) was 1.68 µM and the TGI (HOP-62 NSCLC) was 4.14 µM. It also gave a GI50 (HS 578T breast) of 2.18 µM, a TGI (HS 578T breast) of 5.16 µM and a GI50 (HT29 colon) of 2.02 µM. The TGI (HT29 colon) was 3.96 µM, the GI50 (IGROV1 ovarian) was 2.59 µM and the TGI (IGROV1 ovarian) was 6.87 µM. The GI50 (K-562 leukemia) was 2 µM, the TGI (K-562 leukemia) was 6.09 µM and the GI50 (KM12 colon) was 2.01 µM. For the same compound, the TGI (KM12 colon) was 4.58 µM, the GI50 (LOX IMVI melanoma) was 1.66 µM and the TGI (LOX IMVI melanoma) was 3.22 µM. It also gave a GI50 (M14 melanoma) of 1.72 µM, a TGI (M14 melanoma) of 3.62 µM and a GI50 (MALME-3M melanoma) of 1.64 µM. The TGI (MALME-3M melanoma) was 3.22 µM, the GI50 (MCF7 breast) was 0.621 µM and the TGI (MCF7 breast) was 2.41 µM. For the same compound, the GI50 (MDA-MB-231 breast) was 1.78 µM, the TGI (MDA-MB-231 breast) was 3.38 µM and the GI50 (MDA-MB-435) was 1.67 µM. The TGI (MDA-MB-435) was 3.18 µM, the GI50 (MOLT-4 leukemia) was 2.64 µM and the TGI (MOLT-4 leukemia) was 9.71 µM. It also gave a GI50 (NCI-H226 lung) of 2.99 µM, a TGI (NCI-H226 lung) of 12.6 µM and a GI50 (NCI-H23 lung) of 2.09 µM. For the same compound, the TGI (NCI-H23 lung) was 5.35 µM, the GI50 (NCI-H460 lung) was 1.85 µM and the TGI (NCI-H460 lung) was 3.5 µM. The GI50 (NCI-H522 lung) was 2.16 µM, the TGI (NCI-H522 lung) was 4.17 µM and the GI50 (NCI/ADR-RES ovarian) was 2.99 µM. The TGI (NCI/ADR-RES ovarian) was 11.5 µM, the GI50 (OVCAR-3 ovarian) was 1.69 µM and the TGI (OVCAR-3 ovarian) was 3.34 µM. It also gave a GI50 (OVCAR-4 ovarian) of 2.31 µM, a TGI (OVCAR-4 ovarian) of 7.84 µM and a GI50 (OVCAR-5 ovarian) of 3.42 µM. The TGI (OVCAR-5 ovarian) was 12.8 µM, the GI50 (OVCAR-8 ovarian) was 1.8 µM and the TGI (OVCAR-8 ovarian) was 3.59 µM. For the same compound, the GI50 (RPMI-8226 leukemia) was 1.99 µM, the TGI (RPMI-8226 leukemia) was 4.5 µM and the GI50 (RXF 393 renal) was 1.9 µM. For the same compound, the TGI (RXF 393 renal) was 3.62 µM, the GI50 (SF-268 CNS) was 1.98 µM and the TGI (SF-268 CNS) was 4.75 µM. For the same compound, the GI50 (SF-295 CNS) was 1.66 µM, the TGI (SF-295 CNS) was 3.25 µM and the GI50 (SF-539 CNS) was 1.61 µM. It also gave a TGI (SF-539 CNS) of 3.25 µM, a GI50 (SK-MEL-2 melanoma) of 1.85 µM and a TGI (SK-MEL-2 melanoma) of 3.62 µM. It also gave a GI50 (SK-MEL-28 melanoma) of 1.76 µM, a TGI (SK-MEL-28 melanoma) of 3.53 µM and a GI50 (SK-MEL-5 melanoma) of 1.55 µM. The TGI (SK-MEL-5 melanoma) was 2.93 µM, the GI50 (SK-OV-3 ovarian) was 2.84 µM and the TGI (SK-OV-3 ovarian) was 13.3 µM. The GI50 (SN12C renal) was 1.93 µM, the TGI (SN12C renal) was 3.82 µM and the GI50 (SNB-19 CNS) was 2.57 µM. For the same compound, the TGI (SNB-19 CNS) was 6.16 µM, the GI50 (SNB-75 CNS) was 1.69 µM and the TGI (SNB-75 CNS) was 4.93 µM. For the same compound, the GI50 (SR leukemia) was 1.76 µM, the TGI (SR leukemia) was 5.96 µM and the GI50 (SW-620 colon) was 1.81 µM. It also gave a TGI (SW-620 colon) of 3.46 µM, a GI50 (T-47D breast) of 1.3 µM and a TGI (T-47D breast) of 4.23 µM. For the same compound, the GI50 (TK-10 renal) was 2.03 µM, the TGI (TK-10 renal) was 6.05 µM and the GI50 (U251 CNS) was 1.73 µM. For the same compound, the TGI (U251 CNS) was 3.2 µM, the GI50 (UACC-257 melanoma) was 1.79 µM and the TGI (UACC-257 melanoma) was 3.42 µM. For the same compound, the GI50 (UACC-62 melanoma) was 1.86 µM, the TGI (UACC-62 melanoma) was 3.38 µM and the GI50 (UO-31 renal) was 1.52 µM. It also gave a TGI (UO-31 renal) of 3.02 µM.

From PubChem BioAssay (NCI)
